# Experimental data reported in patent publication US10676514B2, “CDCA1-derived peptide and vaccine containing same” (ONCOTHERAPY SCIENCE, INC., priority 2014, dated 2020).
# “Also recorded” adds a separate entry of the source.
# Test system: COS7 cells transfected with CDCA1 and HLA-A*1101
# Test: Specific CTL activity against target cells expressing CDCA1 and HLA-A*1101
# Type: cell-based, African green monkey
# Conditions: listed as CDCA1-A11-9-219
# From the text: A cDNA encoding the open-reading frame of a target gene or HLA-A*1101 was amplified by PCR. The PCR-amplified product was cloned into an expression vector. Either or both of the target gene-expressing vector and the HLA-A*1101-expressing vector were transfected into COS7, which is a cell line negative for the target gene and HLA, using Lipofectamine 2000 (Invitrogen) following the manufacturer's recommended protocol. Two days after transfection, the transfected cells were harvested using versene (Invitrogen), and used as the target cell for CTL activity assay (5×10^4 cells/well).
# The CTL clone established against CDCA-A11-9-219 (SEQ ID NO: 7) was investigated for its ability to recognize target cells expressing CDCA1 and the HLA-A*1101 molecule. COS7 cells transfected with both full-length CDCA1 and the HLA-A*1101 gene (a specific model of target cells expressing CDCA1 and the HLA-A*1101 gene) were prepared as the target cell. COS7 cells transfected with either full-length CDCA1 or HLA-A*1101 were prepared as the control.
sequence,measurement,setting,value
KTKRLNELK (a peptide derived from CDCA1) [SEQ ID NO: 7],specific CTL activity of CTL clone,COS7 cells transfected with both CDCA1 and HLA-A*1101,specific CTL activity; also recorded: potent CTL activity
same,specific CTL activity of CTL clone against control cells,COS7 cells transfected with either full-length CDCA1 or HLA-A*1101,a significant specific CTL activity was not shown; also recorded: a significant specific CTL activity was not detected
